Experimental findings from US20060074243A1, “Hydroxamic acid and amide compounds and their use as protease inhibitors” (Pharmacia Corporation, priority 2002, published 2006) are described below.

Some results are limits rather than exact numbers.

What all share (assay): In vitro MMP inhibition analysis (fluorogenic peptide substrate cleavage), Ki
What all share (assay type): biochemical

One experiment deals with T1, Human recombinant MMP-9 (Homo sapiens, UniProt P14780).
T1 construct: made in house; host or cells: MMP-9-transfected HT1080 cells (spent media)
T1 sequence (P14780 107-707 limits assumed): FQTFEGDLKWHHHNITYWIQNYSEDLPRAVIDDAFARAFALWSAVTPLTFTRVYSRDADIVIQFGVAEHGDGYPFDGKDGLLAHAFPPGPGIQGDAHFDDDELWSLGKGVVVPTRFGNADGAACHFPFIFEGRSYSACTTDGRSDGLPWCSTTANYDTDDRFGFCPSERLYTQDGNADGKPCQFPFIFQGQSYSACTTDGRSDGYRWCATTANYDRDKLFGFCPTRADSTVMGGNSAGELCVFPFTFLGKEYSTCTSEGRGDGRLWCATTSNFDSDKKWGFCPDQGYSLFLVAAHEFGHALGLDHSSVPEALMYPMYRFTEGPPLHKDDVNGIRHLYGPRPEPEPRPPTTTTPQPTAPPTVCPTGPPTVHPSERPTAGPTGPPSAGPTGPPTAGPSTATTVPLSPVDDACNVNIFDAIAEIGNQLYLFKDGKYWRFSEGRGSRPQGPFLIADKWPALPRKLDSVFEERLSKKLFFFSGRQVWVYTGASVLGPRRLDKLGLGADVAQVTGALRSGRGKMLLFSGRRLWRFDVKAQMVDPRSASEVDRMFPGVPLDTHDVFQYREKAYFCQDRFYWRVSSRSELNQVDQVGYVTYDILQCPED
On the procedure:
(§1) Several compounds and salts were analyzed in an in vitro assay to determine their ability to inhibit the MMP cleavage of peptide substrates. Inhibition constant (Ki) were calculated from the assayed compound-MMP interactions.
(§2) Human recombinant MMP-1, MMP-2, MMP-9, MMP-13, and MMP-14 were used in this assay. All enzymes were prepared in Assignee's laboratories following usual laboratory procedures. Protocols for the preparation and use of these enzymes are available in the scientific literature. See, e.g., Enzyme Nomenclature (Academic Press, San Diego, Calif., 1992) (and the citations therein). See also, Frije et al., J. Biol. Chem., 26(24), 16766-73 (1994).
The MMP-9 proenzyme was purified by gelatin Sepharose chromatography from spent media of MMP-9-transfected HT1080 cells provided by Dr. Howard Welgus of Washington University (St. Louis, Mo.).
(§3) All MMPs were activated using 4-aminophenylmercuric acetate (“APMA”, Sigma Chemical, St. Louis, Mo.) or trypsin. MMP-9 also was activated using human recombinant MMP-3 (purified in Assignee's laboratory following standard cloning and purification techniques).
(§4) The following fluorogenic, methoxycoumarin-containing polypeptide substrate (I) was used in the MMP inhibition assays: MCA-ArgProLeuGlyLeuDpaAlaArgGluArgNH2 (I) “MCA” is 7-methoxycoumarin-4-yl acetyl. Substrate (I) was prepared Assignee's laboratory. In the absence of MMP inhibitory activity, the substrate is cleaved at the Gly-Leu peptide bond. This cleavage separates the highly fluorogenic peptide from the 2,4-dinitrophenyl quencher, thus resulting in increase of fluorescent intensity.
(§5) The stock solutions of the assayed compounds and salts were prepared in […] (DMSO). These stock solutions were diluted in Buffer A (100 mM Tris-HCl, 100 mM NaCl, 10 mM CaCl2, 0.05% polyoxyethylene 23 lauryl ether, pH 7.5) to obtain solutions with different compound concentrations, i.e., assay solutions with different concentrations of the assayed […] compound. The experiment controls contained the same amount of Buffer A/DMSO as the assayed sample, but contained none of the tested compound or salt.
(§6) The assays from which the Ki determinations were made were performed as follows. The assayed compound samples were incubated in separate wells of untreated white polystyrene plates (Nunc Nalgene International, Rochester, N.Y.), and analyzed on a Tecan SpectraFlour Plus plate reader. The excitation wavelength was 330 nm, and the emission wavelength—420 nm. All samples (assayed compounds and controls) were incubated in separate plate wells at room temperature for 1 hr in the presence of 4 μM of MMP substrate (I). In the absence of MMP inhibitory activity, substrate (I) was cleaved at the Gly-Leu bond resulting in an increase of relative fluorescence. Inhibition was observed as a reduced rate of this increase in relative fluorescence. […] This protocol is a modification of method by Knight et al., FEBS Lett., 296(3), 263-266 (1992). Apparent inhibitory constants were determined by non-linear regression of reaction velocity as a function of inhibitor and enzyme concentration using Morrison's equation, as described by Kuzmic, Anal. Biochem. 286, 45-50 (2000). Modifications were made in the non-linear regression method to allow a common control reaction rate and effective enzyme concentration to be shared between all dose-response relationships on a given assay plate. Since the substrate concentration was chosen to be at or below the Km, the apparent Ki's from this analysis were reported as Ki's without correction for the influence of substrate.
(§7) The above protocols were used to determine Ki constants for the compounds in Examples 2-35 above. All Ki values in Table 1 are given in nM units.

A further experiment deals with T2, Human recombinant MMP-14 (Homo sapiens, UniProt P50281).
T2 construct: The catalytic domain enzyme was expressed in E. coli inclusion bodies, solubilized in urea; made in house
On the procedure: as §1, §2
The MMP-14 full length cDNA was provided by Dr. Gregory Goldberg of Washington University (St. Louis, Mo.). The catalytic domain enzyme was expressed in E. coli inclusion bodies, solubilized in urea, purified on a preparative […] reverse phase HPLC column, and then refolded in the presence of zinc acetate and purified for use.
as §3, §4, §5, §6, §7

Another experiment addresses T3, Human recombinant MMP-2 (Homo sapiens, UniProt P08253).
T3 construct: made in house; host or cells: MMP-2-transfected p2AHT2 cells
T3 sequence (P08253 110-660): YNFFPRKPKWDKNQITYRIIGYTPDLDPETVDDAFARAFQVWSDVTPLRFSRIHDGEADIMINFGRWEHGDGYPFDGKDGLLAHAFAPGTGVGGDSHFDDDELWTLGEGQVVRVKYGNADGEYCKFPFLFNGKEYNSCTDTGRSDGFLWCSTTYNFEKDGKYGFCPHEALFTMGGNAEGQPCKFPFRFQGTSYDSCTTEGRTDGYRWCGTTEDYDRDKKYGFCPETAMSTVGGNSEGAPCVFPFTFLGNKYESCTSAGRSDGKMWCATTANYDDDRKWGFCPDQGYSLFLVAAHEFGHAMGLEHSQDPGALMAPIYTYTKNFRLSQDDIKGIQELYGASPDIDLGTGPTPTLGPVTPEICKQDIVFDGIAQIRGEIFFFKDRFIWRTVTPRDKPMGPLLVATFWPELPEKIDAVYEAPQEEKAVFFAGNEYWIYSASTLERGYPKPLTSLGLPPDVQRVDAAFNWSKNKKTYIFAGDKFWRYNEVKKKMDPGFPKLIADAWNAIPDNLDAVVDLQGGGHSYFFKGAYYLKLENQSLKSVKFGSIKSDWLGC
How it is done:
as §1, §2
The MMP-2 proenzyme was purified by gelatin Sepharose chromatography from MMP-2-transfected p2AHT2 cells provided by Dr. Gregory Goldberg of Washington University (St. Louis, Mo.).
as §3, §4, §5, §6, §7

Usually Ki stands for a measure of affinity in units of concentration, obtained from inhibition or displacement.

For `O=C(NO)C1(S(=O)(=O)c2ccc(-c3cnc(C4CCCC4)cn3)cc2)CCOCC1` [Example 162], the results for the Ki on Human recombinant MMP-9 (Table 2), at Human recombinant MMP-14 (Table 2) and on Human recombinant MMP-2 (Table 2) were 34 nM, 7350 nM and 3.11 nM, respectively.
Turning to `O=C(NO)C1(S(=O)(=O)c2ccc(-c3ccc(CCCC(F)(F)F)cn3)cc2)CCN(C2CC2)CC1` [Example 51], the values for the Ki on Human recombinant MMP-9 (Table 1), on Human recombinant MMP-14 (Table 1) and on Human recombinant MMP-2 (Table 1) were 0.22 nM, 1890 nM and 0.16 nM, respectively.
As for `CCCCc1ccc(-c2ccc(S(=O)(=O)C3(C(=O)NO)CCN(CC)CC3)cc2)nc1` [Example 140], the Ki stood at 0.127 nM at Human recombinant MMP-9 (Table 2), 604 nM on Human recombinant MMP-14 (Table 2) and 0.176 nM on Human recombinant MMP-2 (Table 2).
The like results for `CC(=O)Nc1cnc(-c2ccc(S(=O)(=O)C3(C(=O)NO)CCOCC3)cc2)cn1` [Example 76] were, in that order, 114 nM, 3480 nM and 10.3 nM.
Turning to `O=C(NO)C1(S(=O)(=O)c2ccc(-c3ccc(CCC(F)(F)F)cc3)cc2)CCOCC1` [Example 161], the figures for the Ki at Human recombinant MMP-9 (Table 2), at Human recombinant MMP-14 (Table 2) and on Human recombinant MMP-2 (Table 2) were 0.21 nM, 303 nM and 0.15 nM, respectively.
Regarding `CN1CCC(C(=O)NO)(S(=O)(=O)c2ccc(-c3ccc(OC(F)(F)C(F)F)cc3)cc2)CC1` [Example 146], the inhibitory constant (Ki) at Human recombinant MMP-9 (Table 2) came out at 0.48 nM; on Human recombinant MMP-14 (Table 2), 1050 nM; on Human recombinant MMP-2 (Table 2), 0.3 nM.
Take `O=C(NO)C1(S(=O)(=O)c2ccc(-c3cnc(CCC4CC4)cn3)cc2)CCOCC1` [Example 49]: the inhibition constant Ki at Human recombinant MMP-9 (Table 1) turned out to be 0.88 nM; at Human recombinant MMP-14 (Table 1), 3620 nM; on Human recombinant MMP-2 (Table 1), 2.36 nM.
For `O=C(NO)C1(S(=O)(=O)c2ccc(-c3ccc(CCCC(F)(F)F)cc3)cc2)CCN(C2CC2)CC1` [Example 44], the Ki at Human recombinant MMP-9 (Table 1) worked out at 0.68 nM; on Human recombinant MMP-14 (Table 1), 2160 nM; at Human recombinant MMP-2 (Table 1), 0.48 nM.
Turning to `CCN1CCC(C(=O)NO)(S(=O)(=O)c2ccc(-c3ccc(-c4csc(C)n4)cc3)cc2)CC1` [Example 155], the Ki on Human recombinant MMP-9 (Table 2) was determined as 0.44 nM; on Human recombinant MMP-14 (Table 2), 283 nM; on Human recombinant MMP-2 (Table 2), 0.66 nM.
Take `O=C(NO)C1(S(=O)(=O)c2ccc(-c3ccc(CCCC(F)(F)F)cn3)cc2)CCOCC1` [Example 69]: the Ki at Human recombinant MMP-9 (Table 1) turned out to be 0.719 nM; at Human recombinant MMP-14 (Table 1), 708 nM; at Human recombinant MMP-2 (Table 1) it was 0.322 nM.
The like results for `COCCN1CCC(C(=O)NO)(S(=O)(=O)c2ccc(-c3ccc(CCC(C)(F)F)cc3)cc2)CC1` [Example 63] were, in that order, 0.08 nM, 237 nM and 0.04 nM.
As for `COCC#Cc1cnc(-c2ccc(S(=O)(=O)C3(C(=O)NO)CCOCC3)cc2)cn1` [Example 164], the values for the Ki at Human recombinant MMP-9 (Table 2), at Human recombinant MMP-14 (Table 2) and on Human recombinant MMP-2 (Table 2) were 0.57 nM, 152 nM and 0.6 nM, respectively.
In the same order, the values of `O=C(NO)C1(S(=O)(=O)c2ccc(-c3cnc(N4CCCC4)cn3)cc2)CCOCC1` [Example 138] are 1.04 nM, 1110 nM and 0.218 nM.
With `O=C(NO)C1(S(=O)(=O)c2ccc(-c3ccc(CCC(F)(F)C(F)(F)F)cc3)cc2)CCOCC1` [Example 41], the Ki was determined as 0.937 nM at Human recombinant MMP-9 (Table 1), 1140 nM at Human recombinant MMP-14 (Table 1) and 0.375 nM at Human recombinant MMP-2 (Table 1).
In the same order, the values of `CCN1CCC(C(=O)NO)(S(=O)(=O)c2ccc(-c3ccc(CCCC(F)(F)F)cn3)cc2)CC1` [Example 53] are 1 nM, 3960 nM and 0.46 nM.
Turning to `CCCCCc1ccc(-c2ccc(S(=O)(=O)C3(C(=O)NO)CCOCC3)cc2)cc1` [Example 75], the Ki was 1.01 nM on Human recombinant MMP-9 (Table 2), 621 nM on Human recombinant MMP-14 (Table 2) and 0.674 nM on Human recombinant MMP-2 (Table 2).
Turning to `COCCN1CCC(C(=O)NO)(S(=O)(=O)c2ccc(-c3ccc(CCC(F)(F)C(F)(F)F)cc3)cc2)CC1` [Example 46], the Ki came to 0.38 nM at Human recombinant MMP-9 (Table 1), 1860 nM at Human recombinant MMP-14 (Table 1) and 0.21 nM on Human recombinant MMP-2 (Table 1).
In the same order, the values of `O=C(NO)C1(S(=O)(=O)c2ccc(-c3cnc(CCC(F)(F)C(F)(F)F)cn3)cc2)CCOCC1` [Example 55] are 0.347 nM, 2560 nM and 0.586 nM.
Take `CCCCOc1cnc(-c2ccc(S(=O)(=O)C3(C(=O)NO)CCOCC3)cc2)cn1` [Example 73]: the Ki at Human recombinant MMP-9 (Table 2) came out at 0.112 nM; at Human recombinant MMP-14 (Table 2), 159 nM; on Human recombinant MMP-2 (Table 2) it was 0.0835 nM.
For `O=C(NO)C1(S(=O)(=O)c2ccc(-c3ccc(OC(F)(F)C(F)F)cc3)cc2)CCN(C2CC2)CC1` [Example 40], the Ki on Human recombinant MMP-9 (Table 1) is 0.102 nM; on Human recombinant MMP-14 (Table 1), 292 nM; at Human recombinant MMP-2 (Table 1), 0.074 nM.
Turning to `CC(C)(C)CCNc1cnc(-c2ccc(S(=O)(=O)C3(C(=O)NO)CCOCC3)cc2)cn1` [Example 130], the inhibition constant (Ki) was 12.8 nM on Human recombinant MMP-9 (Table 2), above 1250 nM at Human recombinant MMP-14 (Table 2) and 14.2 nM at Human recombinant MMP-2 (Table 2).
As to `CCOc1ccc(-c2ccc(S(=O)(=O)C3(C(=O)NO)CCOCC3)cc2)cc1` [Example 163], the figures for the Ki at Human recombinant MMP-9 (Table 2), on Human recombinant MMP-14 (Table 2) and on Human recombinant MMP-2 (Table 2) were 0.03 nM, 56.7 nM and 0.02 nM, respectively.
The like results for `O=C(NO)C1(S(=O)(=O)c2ccc(-c3cscc3-c3ccc(F)cc3)cc2)CCOCC1` [Example 132] were, in that order, 298 nM, 3170 nM and 153 nM.
Regarding `O=C(NO)C1(S(=O)(=O)c2ccc(-c3ccc(CCC(F)(F)C(F)(F)F)cc3)cc2)CCN(C2CC2)CC1` [Example 45], the Ki on Human recombinant MMP-9 (Table 1) was 1.16 nM; at Human recombinant MMP-14 (Table 1), 1730 nM; at Human recombinant MMP-2 (Table 1) it was 0.55 nM.
Take `COCCN1CCC(C(=O)NO)(S(=O)(=O)c2ccc(-c3cnc(OCC(F)(F)C(F)(F)F)cn3)cc2)CC1` [Example 157]: the Ki is 0.42 nM on Human recombinant MMP-9 (Table 2), 1220 nM at Human recombinant MMP-14 (Table 2) and 0.37 nM on Human recombinant MMP-2 (Table 2).
Consider `CCN1CCC(C(=O)NO)(S(=O)(=O)c2ccc(-c3ccc(-c4ccncc4)cc3)cc2)CC1` [Example 136], for which the Ki at Human recombinant MMP-9 (Table 2) turned out to be 0.418 nM; at Human recombinant MMP-14 (Table 2), 308 nM; at Human recombinant MMP-2 (Table 2), 0.074 nM.
Regarding `CCN1CCC(C(=O)NO)(S(=O)(=O)c2ccc(-c3cnc(CCC(C)(F)F)cn3)cc2)CC1` [Example 64], the Ki was 0.677 nM on Human recombinant MMP-9 (Table 1), above 10000 nM at Human recombinant MMP-14 (Table 1) and 1.65 nM on Human recombinant MMP-2 (Table 1).
With `O=C(NO)C1(S(=O)(=O)c2ccc(-c3ccc(OCCCC(F)(F)F)cn3)cc2)CCOCC1` [Example 144], the Ki came to 1.13 nM on Human recombinant MMP-9 (Table 2), 187 nM at Human recombinant MMP-14 (Table 2) and 0.037 nM at Human recombinant MMP-2 (Table 2).
